Laboratory results taken from ChEMBL document CHEMBL1158636, “Discovery of a novel sulfonamide-pyrazolopiperidine series as potent and efficacious gamma-secretase inhibitors (Part II)” (Bioorg Med Chem Lett, 2010).

What was measured:
[1] = Inhibition of gamma-secretase-mediated notch cleavage after 2 hrs by ELISA
[2] = biological target: Gamma-secretase; test: Inhibition of gamma-secretase-mediated notch cleavage in human SNC cells by ELISA; type: cell-based
[3] = Inhibition of gamma-secretase-mediated APP cleavage assessed as amyloid beta40 level after 2 hrs by ELISA
[4] = (§1) Oxidative metabolic stability in human liver microsomes assessed as compound remaining at 2 uM after 30 mins in presence of 1 mM UDPGA; type: ADME, Microsome; settings: liver microsomes, read-out: Stability
[5] = test system: Liver microsomes; test: (§2) Oxidative metabolic stability in human liver microsomes assessed as compound remaining at 1 uM after 30 mins in presence of 1 mM NADPH; type: ADME, Microsome; settings: microsomes, 0.5 h, 1 µM
[6] = biological target: Gamma-secretase (Homo sapiens) (UniProt Q96BI3+Q9NZ42+Q8WW43+P49768+Q92542+P49810); test: Inhibition of gamma-secretase-mediated APP cleavage in human SNC cells by ELISA; type: cell-based
[7] = as §2; type: ADME, Microsome; settings: liver microsomes, read-out: Stability
[8] = test system: Mus musculus; test: Neuroprotective activity in wild type FVB mouse brain assessed as reduction of amyloid beta 40 level at 1 mg/kg, po after 3 hrs; type: functional; set-up: scale not given: the % may be the effect or the level left
[9] = test system: Liver microsomes; test: as §1; type: ADME, Microsome; settings: microsomes, 0.5 h, 2 µM

Compound | IC50 [1] [nM] | IC50 [2] [nM] | IC50 [3] [nM] | remaining at 0.5 h, 2 µM [4] [%] | Stability [5] [%] | ED50 [6] [nM] | remaining at 0.5 h, 1 µM [7] [%] | Activity [8] [%] | Stability [9] [%]
O=S(=O)(c1ccc(C(F)(F)F)nc1)N1C(C2CC2)c2cn[nH]c2C(F)(F)C12CC2 (racemic) [4'-CYCLOPROPYL-7',7'-DIFLUORO-5'-(6-(TRIFLUOROMETHYL)PYRIDIN-3-YLSULFONYL)-1',4',5',7'-TETRAHYDRO SPIRO[CYCLOPROPANE-1,6'-PYRAZOLO[4,3-C]PYRIDINE] (ENANTIOMERIC MIX)] | 2 | 50 | 0.2 | 89 | 61 | – | – | – | –
C[C@@H]1N(S(=O)(=O)c2ccc(C(F)(F)F)nc2)[C@H](C2CC2)c2cn[nH]c2C1(F)F (relative stereo) | 20 | 358 | 1.2 | 59 | – | 6 | 79 | – | –
CC[C@@H]1c2cn[nH]c2C(F)(F)[C@H](CC)N1S(=O)(=O)c1ccc(C(F)(F)F)nc1 (relative stereo) | 50 | 304 | 1.8 | 66 | – | 6 | 22 | – | –
C[C@@H]1c2cn[nH]c2C(=O)[C@H](C)N1S(=O)(=O)c1ccc(C(F)(F)F)nc1 (stereo in doubt) | 144 | 18300 | 13.2 | 91 | – | 1100 | 67 | – | –
CC[C@@H]1c2cn[nH]c2C(=O)[C@H](CC)N1S(=O)(=O)c1ccc(Cl)cc1 (stereo in doubt) | 5 | 288 | 0.1 | 65 | – | 5 | 10 | – | –
O=S(=O)(c1ccc(C(F)(F)F)nc1)N1[C@@H](C2CC2)c2cn[nH]c2C(F)(F)[C@H]1C1CC1 (stereo in doubt) | 23 | 138 | 0.6 | 75 | – | 2 | 80 | 20 | –
O=S(=O)(c1ccc(C(F)(F)F)nc1)N1[C@@H](C2CC2)c2cn[nH]c2C(F)(F)[C@@H]1C1CC1 (stereo in doubt) | 3 | 34 | 0.3 | 61 | – | 0.5 | 53 | – | –
O=S(=O)(c1ccc(C(F)(F)F)nc1)N1[C@H](C2CC2)c2cn[nH]c2C(F)(F)[C@H]1C1CC1 (stereo in doubt) | 3 | 13 | 0.1 | 41 | – | 0.2 | 43 | – | –
O=S(=O)(c1ccc(C(F)(F)F)nc1)N1[C@@H](C2CC2)C(F)(F)c2[nH]ncc2[C@H]1C1CC1 (stereo in doubt) | 47 | 304 | 0.8 | 67 | – | 3 | 71 | – | –
CC(C)(C)C1C(=O)c2[nH]ncc2C(C2CC2)N1S(=O)(=O)c1ccc(C(F)(F)F)nc1 (stereo in doubt; 3u) [6-TERT-BUTYL-4-CYCLOPROPYL-5-(6-(TRIFLUOROMETHYL)PYRIDIN-3-YLSULFONYL)-5,6-DIHYDRO-1H-PYRAZOLO[4,3-C]PYRIDIN-7(4H)-ONE (STRUCTURAL MIX)] | 107 | 1640 | 4.8 | – | 12 | – | – | – | –
O=C1c2[nH]ncc2C(C2CC2)N(S(=O)(=O)c2ccc(C(F)(F)F)nc2)C12CC2 (stereo in doubt; 16e) [4'-CYCLO PROPYL-5'-(6-(TRIFLUORO METHYL)PYRIDIN-3-YL SULFONYL)-4',5'-DIHYDROSPIRO[CYCLOPROPANE-1,6'-PYRAZOLO[4,3-C]PYRIDIN]-7'(1'H)-ONE (ENANTIOMERIC MIX)] | – | > 40000 | 1070 | – | 83 | – | – | – | 88
O=C1c2[nH]ncc2C(C2CC2)N(S(=O)(=O)c2ccc(C(F)(F)F)nc2)C12CC2 (stereo in doubt; 16f) [4'-CYCLO PROPYL-5'-(6-(TRIFLUORO METHYL)PYRIDIN-3-YL SULFONYL)-4',5'-DIHYDROSPIRO[CYCLOPROPANE-1,6'-PYRAZOLO[4,3-C]PYRIDIN]-7'(1'H)-ONE (ENANTIOMERIC MIX)] | 15 | 250 | 1.4 | – | – | – | – | 27 | 94
O=C1c2[nH]ncc2C(C2CC2)N(S(=O)(=O)c2ccc(C(F)(F)F)cn2)C12CC2 (stereo in doubt; 16h) [4'-CYCLOPROPYL-5'-(5-(TRIFLUORO METHYL)PYRIDIN-2-YL SULFONYL)-4',5'-DIHYDROSPIRO[CYCLOPROPANE-1,6'-PYRAZOLO[4,3-C]PYRIDIN]-7'(1'H)-ONE (ENANTIOMERIC MIX)] | 8280 | > 40000 | 897 | – | 80 | – | – | – | –
O=C1c2[nH]ncc2C(C2CC2)N(S(=O)(=O)c2ccc(C(F)(F)F)cn2)C12CC2 (stereo in doubt; 16i) [4'-CYCLOPROPYL-5'-(5-(TRIFLUORO METHYL)PYRIDIN-2-YL SULFONYL)-4',5'-DIHYDROSPIRO[CYCLOPROPANE-1,6'-PYRAZOLO[4,3-C]PYRIDIN]-7'(1'H)-ONE (ENANTIOMERIC MIX)] | 223 | 2290 | 9.6 | – | 82 | – | – | – | 96
O=S(=O)(c1ccc(C(F)(F)F)nc1)N1C(C2CC2)c2cn[nH]c2C(F)(F)C12CC2 (stereo in doubt; 17b) [4'-CYCLOPROPYL-7',7'-DIFLUORO-5'-(6-(TRIFLUOROMETHYL)PYRIDIN-3-YLSULFONYL)-1',4',5',7'-TETRAHYDRO SPIRO[CYCLOPROPANE-1,6'-PYRAZOLO[4,3-C]PYRIDINE] (ENANTIOMERIC MIX)] | 1 | 25 | – | – | 85 | – | – | – | 85
O=S(=O)(c1ccc(C(F)(F)F)nc1)N1C(C2CC2)c2cn[nH]c2C(F)(F)C12CC2 (stereo in doubt; 17c) [4'-CYCLOPROPYL-7',7'-DIFLUORO-5'-(6-(TRIFLUOROMETHYL)PYRIDIN-3-YLSULFONYL)-1',4',5',7'-TETRAHYDRO SPIRO[CYCLOPROPANE-1,6'-PYRAZOLO[4,3-C]PYRIDINE] (ENANTIOMERIC MIX)] | 221 | 9280 | 56 | – | 72 | – | – | – | 100
